# Measurements from patent publication US20240398811A1, “PRC2 INHIBITORS FOR USE IN TREATING BLOOD DISORDERS” (ORIC Pharmaceuticals, Inc., priority 2021, published 2024).
# Biological target: purified human, His-tagged PRC2 complex (Homo sapiens (Human), UniProt O75530)
# Assay: Hot Spot HMT assay, inhibition of PRC2 enzymatic activity
# Format: biochemical
# Details: 10 nM PRC2 complex, 1 μM 3H-SAM, core histone H3, 10-point dose-response
# Outline: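 Five-subunit PRC2 complex (EZH2, EED, SUZ12, AEBP2, RbAp48; 10 nM) preincubated 20 min at 30° C with compound (top 1.0 μM) and 0.05 mg/ml core histone H3 in Tris-HCl, 1% DMSO. Started with 1 μM [3H]SAM, 1 hr at 30° C; tritiated H3 measured by filter binding and scintillation.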
# Sequence of purified human, His-tagged PRC2 complex (O75530 whole entry): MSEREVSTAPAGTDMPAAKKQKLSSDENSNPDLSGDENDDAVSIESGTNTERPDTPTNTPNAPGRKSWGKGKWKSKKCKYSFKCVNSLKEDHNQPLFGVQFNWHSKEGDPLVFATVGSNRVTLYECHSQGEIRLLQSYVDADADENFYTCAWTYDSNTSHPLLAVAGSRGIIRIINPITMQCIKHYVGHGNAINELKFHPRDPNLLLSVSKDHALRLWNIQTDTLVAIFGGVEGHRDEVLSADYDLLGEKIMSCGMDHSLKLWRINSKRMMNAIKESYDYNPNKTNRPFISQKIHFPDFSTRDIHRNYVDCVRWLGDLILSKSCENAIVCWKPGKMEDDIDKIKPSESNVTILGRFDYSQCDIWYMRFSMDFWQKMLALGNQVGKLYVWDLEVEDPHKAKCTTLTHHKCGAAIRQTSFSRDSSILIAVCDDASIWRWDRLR
# Sequence of purified human, His-tagged PRC2 complex (Q15910 whole entry partner): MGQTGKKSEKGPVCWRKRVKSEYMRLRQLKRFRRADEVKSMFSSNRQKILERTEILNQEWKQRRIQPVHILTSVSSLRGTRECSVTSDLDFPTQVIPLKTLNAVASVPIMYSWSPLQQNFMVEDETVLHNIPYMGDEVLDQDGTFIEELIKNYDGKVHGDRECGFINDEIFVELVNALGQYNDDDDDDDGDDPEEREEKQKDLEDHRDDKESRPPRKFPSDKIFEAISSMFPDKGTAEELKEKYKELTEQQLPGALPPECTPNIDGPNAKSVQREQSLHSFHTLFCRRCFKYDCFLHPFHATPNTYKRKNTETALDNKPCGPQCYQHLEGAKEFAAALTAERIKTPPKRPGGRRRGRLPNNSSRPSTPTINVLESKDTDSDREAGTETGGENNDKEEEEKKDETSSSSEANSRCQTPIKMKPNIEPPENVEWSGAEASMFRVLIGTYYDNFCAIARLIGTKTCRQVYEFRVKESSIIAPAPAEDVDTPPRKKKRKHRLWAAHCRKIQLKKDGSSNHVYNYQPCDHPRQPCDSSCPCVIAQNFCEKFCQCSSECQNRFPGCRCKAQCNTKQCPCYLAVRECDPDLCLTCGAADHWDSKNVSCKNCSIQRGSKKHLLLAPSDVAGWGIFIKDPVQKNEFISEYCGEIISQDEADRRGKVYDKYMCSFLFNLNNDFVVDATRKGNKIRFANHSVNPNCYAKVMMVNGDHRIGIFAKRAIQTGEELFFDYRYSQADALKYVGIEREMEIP
# Sequence of purified human, His-tagged PRC2 complex (Q15022 whole entry partner): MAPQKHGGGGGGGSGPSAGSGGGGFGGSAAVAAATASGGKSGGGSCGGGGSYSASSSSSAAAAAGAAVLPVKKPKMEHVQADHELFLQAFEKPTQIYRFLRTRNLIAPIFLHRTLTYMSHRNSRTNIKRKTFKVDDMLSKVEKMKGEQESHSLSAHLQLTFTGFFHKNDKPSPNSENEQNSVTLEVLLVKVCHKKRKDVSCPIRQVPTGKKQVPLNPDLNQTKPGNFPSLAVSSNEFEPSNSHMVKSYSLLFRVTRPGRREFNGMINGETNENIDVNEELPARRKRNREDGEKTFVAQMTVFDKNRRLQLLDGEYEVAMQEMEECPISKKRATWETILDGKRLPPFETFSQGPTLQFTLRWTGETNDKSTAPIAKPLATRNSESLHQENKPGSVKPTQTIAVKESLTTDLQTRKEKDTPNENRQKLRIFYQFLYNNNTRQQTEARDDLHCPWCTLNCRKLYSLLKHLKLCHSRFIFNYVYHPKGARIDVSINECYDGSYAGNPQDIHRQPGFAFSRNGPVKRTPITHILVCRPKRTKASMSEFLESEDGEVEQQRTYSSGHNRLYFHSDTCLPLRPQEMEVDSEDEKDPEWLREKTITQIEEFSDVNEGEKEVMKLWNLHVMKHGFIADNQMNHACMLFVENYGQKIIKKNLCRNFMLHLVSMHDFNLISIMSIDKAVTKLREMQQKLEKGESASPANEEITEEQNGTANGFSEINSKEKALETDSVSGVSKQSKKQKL
# Sequence of purified human, His-tagged PRC2 complex (Q6ZN18 whole entry partner): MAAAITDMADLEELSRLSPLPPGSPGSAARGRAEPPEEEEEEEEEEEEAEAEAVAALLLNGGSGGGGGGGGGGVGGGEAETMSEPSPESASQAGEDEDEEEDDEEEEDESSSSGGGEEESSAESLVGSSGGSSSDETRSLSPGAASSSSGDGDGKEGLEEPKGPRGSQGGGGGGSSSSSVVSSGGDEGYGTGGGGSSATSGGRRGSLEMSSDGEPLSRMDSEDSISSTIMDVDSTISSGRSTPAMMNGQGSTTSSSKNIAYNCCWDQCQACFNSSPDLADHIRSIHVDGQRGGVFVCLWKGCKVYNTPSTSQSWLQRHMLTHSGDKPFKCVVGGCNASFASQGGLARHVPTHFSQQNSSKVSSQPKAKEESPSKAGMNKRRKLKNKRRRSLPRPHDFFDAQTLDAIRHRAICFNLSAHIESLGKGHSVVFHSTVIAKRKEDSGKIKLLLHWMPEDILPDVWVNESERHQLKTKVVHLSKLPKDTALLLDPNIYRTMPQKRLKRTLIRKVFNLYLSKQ
# Sequence of purified human, His-tagged PRC2 complex (Q09028 whole entry partner): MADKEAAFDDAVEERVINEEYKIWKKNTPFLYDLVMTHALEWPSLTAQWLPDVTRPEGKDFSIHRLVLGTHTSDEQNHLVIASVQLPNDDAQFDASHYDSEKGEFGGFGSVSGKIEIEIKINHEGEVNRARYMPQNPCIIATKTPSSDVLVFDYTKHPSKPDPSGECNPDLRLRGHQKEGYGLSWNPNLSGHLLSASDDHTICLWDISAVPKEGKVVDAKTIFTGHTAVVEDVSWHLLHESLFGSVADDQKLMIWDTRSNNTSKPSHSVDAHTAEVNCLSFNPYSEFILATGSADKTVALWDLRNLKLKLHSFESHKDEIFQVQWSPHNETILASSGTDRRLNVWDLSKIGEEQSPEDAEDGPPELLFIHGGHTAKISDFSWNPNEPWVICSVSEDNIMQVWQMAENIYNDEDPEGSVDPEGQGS
row,SMILES,IC50 [nM]
1,"Cc1cc(-c2cnc(NCc3c(F)ccc4c3CCO4)n3cc(C#N)nc23)n(C)n1 [Example 86, 8-(1,3-dimethyl-1H-pyrazol-5-yl)-5-(((5-fluoro-2,3-dihydrobenzofuran-4-yl)methyl)amino)imidazo[1,2-c]pyrimidine-2-carbonitrile]",< 100
2,"Cc1cc(-c2cnc(NCc3c(F)ccc4occc34)n3cc(C(=O)O)nc23)n(C)n1 [Example 9, 8-(1,3-dimethyl-1H-pyrazol-5-yl)-5-(((5-fluorobenzofuran-4-yl)methyl)amino)imidazo[1,2-c]pyrimidine-2-carboxylic acid]",< 100
3,"CN(C)C(=O)c1cc(F)c(-c2cnc(NCc3c(F)ccc4c3CCO4)n3cc(C#N)nc23)cc1F [Example 38, 4-(2-cyano-5-(((5-fluoro-2,3-dihydrobenzofuran-4-yl)methyl)amino)imidazo[1,2-c]pyrimidin-8-yl)-2,5-difluoro-N,N-dimethylbenzamide]",< 100
4,"N#Cc1cn2c(NCc3c(F)ccc4c3CCO4)ncc(-c3cnn(C4CCOC4)c3)c2n1 (stereo not drawn) [Example 107, 5-(((5-fluoro-2,3-dihydrobenzofuran-4-yl)methyl)amino)-8-(1-(tetrahydrofuran-3-yl)-1H-pyrazol-4-yl)imidazo[1,2-c]pyrimidine-2-carbonitrile]",100 to 500
5,"Cc1cc(C2CCCN2)ccc1-c1cnc(NCc2c(F)ccc3c2CCO3)n2cc(C#N)nc12 (single isomer, unassigned) [Example 214, 5-(((5-fluoro-2,3-dihydrobenzofuran-4-yl)methyl)amino)-8-(2-methyl-4-(pyrrolidin-2-yl)phenyl)imidazo[1,2-c]pyrimidine-2-carbonitrile]",< 100
6,"CN1CCOCC1c1ccc(-c2cnc(NCc3c(F)ccc4c3CCO4)n3cc(C#N)nc23)cc1 (stereo not drawn) [Example 227, 5-(((5-fluoro-2,3-dihydrobenzofuran-4-yl)methyl)amino)-8-(4-(4-methylmorpholin-3-yl)phenyl)imidazo[1,2-c]pyrimidine-2-carbonitrile]",< 100
7,"CN1CCc2cc(-c3cnc(NCc4c(F)ccc5c4CCO5)n4cc(C#N)nc34)ccc2C1=O [Example 168, 5-(((5-fluoro-2,3-dihydrobenzofuran-4-yl)methyl)amino)-8-(2-methyl-1-oxo-1,2,3,4-tetrahydroisoquinolin-6-yl)imidazo[1,2-c]pyrimidine-2-carbonitrile]",< 100
8,"N#Cc1ccc(-c2cnc(NCc3c(F)ccc4c3CCO4)n3cc(C#N)nc23)cn1 [Example 128, 8-(6-cyanopyridin-3-yl)-5-(((5-fluoro-2,3-dihydrobenzofuran-4-yl)methyl)amino)imidazo[1,2-c]pyrimidine-2-carbonitrile]",< 100
9,"CN(C)S(=O)(=O)c1ccc(-c2cnc(NCc3c(F)ccc4c3CCO4)n3cc(C#N)nc23)cc1 [Example 58, 4-(2-cyano-5-(((5-fluoro-2,3-dihydrobenzofuran-4-yl)methyl)amino)imidazo[1,2-c]pyrimidin-8-yl)-N,N-dimethylbenzenesulfonamide]",< 100
10,"CN(C)Cc1ncc(-c2cnc(NCc3c(F)ccc4c3CCO4)n3cc(C#N)nc23)cn1 [Example 216, 8-(2-((dimethylamino)methyl)pyrimidin-5-yl)-5-(((5-fluoro-2,3-dihydrobenzofuran-4-yl)methyl)amino)imidazo[1,2-c]pyrimidine-2-carbonitrile]",< 100
11,"Cc1ncncc1-c1cnc(NCc2c(F)ccc3c2CCO3)n2cc(C#N)nc12 [Example 110, 5-(((5-fluoro-2,3-dihydrobenzofuran-4-yl)methyl)amino)-8-(4-methylpyrimidin-5-yl)imidazo[1,2-c]pyrimidine-2-carbonitrile]",< 100
12,"Cc1cc(-c2cnc(NCc3c(F)ccc4c3CCO4)n3cc(C#N)nc23)ccc1CN(C)C [Example 200, 8-(4-((dimethylamino)methyl)-3-methylphenyl)-5-(((5-fluoro-2,3-dihydrobenzofuran-4-yl)methyl)amino)imidazo[1,2-c]pyrimidine-2-carbonitrile]",100 to 500
13,"Cc1cc(-c2cnc(NCc3cccc4c3CCO4)n3cc(C(=O)O)nc23)n(C)n1 [Example 10, 5-(((2,3-dihydrobenzofuran-4-yl)methyl)amino)-8-(1,3-dimethyl-1H-pyrazol-5-yl)imidazo[1,2-c]pyrimidine-2-carboxylic acid]",< 100
14,"CCn1cc(-c2cnc(NCc3c(F)ccc4c3CCO4)n3cc(C#N)nc23)cn1 [Example 119, 8-(1-ethyl-1H-pyrazol-4-yl)-5-(((5-fluoro-2,3-dihydrobenzofuran-4-yl)methyl)amino)imidazo[1,2-c]pyrimidine-2-carbonitrile]",100 to 500
15,"CC(O)Cn1cc(-c2cnc(NCc3c(F)ccc4c3CCO4)n3cc(C#N)nc23)cn1 (stereo not drawn) [Example 179, 5-(((5-fluoro-2,3-dihydrobenzofuran-4-yl)methyl)amino)-8-(1-(2-hydroxypropyl)-1H-pyrazol-4-yl)imidazo[1,2-c]pyrimidine-2-carbonitrile]",< 100
16,"CN(C)c1ccc(-c2cnc(NCc3c(F)ccc4c3CCO4)n3cc(C#N)nc23)cn1 [Example 60, 8-(6-(dimethylamino)pyridin-3-yl)-5-(((5-fluoro-2,3-dihydrobenzofuran-4-yl)methyl)amino)imidazo[1,2-c]pyrimidine-2-carbonitrile]",100 to 500
17,"COC1CCN(Cc2ccc(-c3cnc(NCc4c(F)ccc5c4CCO5)n4cc(C#N)nc34)cc2)C1 (stereo not drawn) [Example 53, 5-(((5-fluoro-2,3-dihydrobenzofuran-4-yl)methyl)amino)-8-(4-((3-methoxypyrrolidin-1-yl)methyl)phenyl)imidazo[1,2-c]pyrimidine-2-carbonitrile]",< 100
18,"N#Cc1cn2c(NCc3c(F)ccc4c3CCO4)ncc(-c3ccc(C(=O)O)nc3)c2n1 [Example 215, 5-(2-cyano-5-(((5-fluoro-2,3-dihydrobenzofuran-4-yl)methyl)amino)imidazo[1,2-c]pyrimidin-8-yl)picolinic Acid]",< 100
19,"N#Cc1cn2c(NCc3c(F)ccc4c3CCO4)ncc(-c3ccc4c(c3)CCNC4=O)c2n1 [Example 172, 5-(((5-fluoro-2,3-dihydrobenzofuran-4-yl)methyl)amino)-8-(1-oxo-1,2,3,4-tetrahydroisoquinolin-6-yl)imidazo[1,2-c]pyrimidine-2-carbonitrile]",< 100
20,"Cc1nc(N2CCOCC2)ccc1-c1cnc(NCc2c(F)ccc3c2CCO3)n2cc(C#N)nc12 [Example 56, 5-(((5-fluoro-2,3-dihydrobenzofuran-4-yl)methyl)amino)-8-(2-methyl-6-morpholinopyridin-3-yl)imidazo[1,2-c]pyrimidine-2-carbonitrile]",< 100
21,"COc1cc(-c2cnc(NCc3c(F)ccc4c3CCO4)n3cc(C#N)nc23)ccn1 [Example 113, 5-(((5-fluoro-2,3-dihydrobenzofuran-4-yl)methyl)amino)-8-(2-methoxypyridin-4-yl)imidazo[1,2-c]pyrimidine-2-carbonitrile]",< 100
22,"N#Cc1cn2c(NCc3c(F)ccc4c3CCO4)ncc(-c3ccc(S(N)(=O)=O)cc3)c2n1 [Example 47, 4-(2-cyano-5-(((5-fluoro-2,3-dihydrobenzofuran-4-yl)methyl)amino)imidazo[1,2-c]pyrimidin-8-yl)benzenesulfonamide]",< 100
23,"CN(C)C1(c2ccc(-c3cnc(NCc4c(F)ccc5c4CCO5)n4cc(C#N)nc34)cc2)CC1 [Example 171, 8-(4-(1-(dimethylamino)cyclopropyl)phenyl)-5-(((5-fluoro-2,3-dihydrobenzofuran-4-yl)methyl)amino)imidazo[1,2-c]pyrimidine-2-carbonitrile]",< 100
24,"[2H]C1Oc2ccc(F)c(C([2H])([2H])Nc3ncc(-c4ccc(CN(C)C)cc4C)c4nc(C#N)cn34)c2C1[2H] (stereo not drawn) [Example 223, 8-(4-((dimethylamino)methyl)-2-methylphenyl)-5-(((5-fluoro-2,3-dihydrobenzofuran-4-yl-2,3-d2)methyl-d2)amino)imidazo[1,2-c]pyrimidine-2-carbonitrile]",< 100
25,"Cc1cn(-c2cnc(NCc3c(F)ccc4c3CCO4)n3cc(C(N)=O)nc23)cn1 [Example 17, 5-(((5-fluoro-2,3-dihydrobenzofuran-4-yl)methyl)amino)-8-(4-methyl-1H-imidazol-1-yl)imidazo[1,2-c]pyrimidine-2-carboxamide]",100 to 500
26,"CNCc1ccc(-c2cnc(NCc3c(F)ccc4c3CCO4)n3cc(C#N)nc23)cc1 [Example 185, 5-(((5-fluoro-2,3-dihydrobenzofuran-4-yl)methyl)amino)-8-(4-((methylamino)methyl)phenyl)imidazo[1,2-c]pyrimidine-2-carbonitrile]",< 100
27,"COc1cc(C)c(-c2cnc(NCc3c(F)ccc4c3CCO4)n3cc(C(=O)O)nc23)cn1 [Example 6, 5-(((5-fluoro-2,3-dihydrobenzofuran-4-yl)methyl)amino)-8-(6-methoxy-4-methylpyridin-3-yl)imidazo[1,2-c]pyrimidine-2-carboxylic acid]",100 to 500
28,"Cc1cc(-c2cnc(NCc3c(F)ccc4c3C(O)CO4)n3cc(C#N)nc23)n(C)n1 (stereo not drawn) [Example 155, 8-(1,3-dimethyl-1H-pyrazol-5-yl)-5-(((5-fluoro-3-hydroxy-2,3-dihydrobenzofuran-4-yl)methyl)amino)imidazo[1,2-c]pyrimidine-2-carbonitrile]",< 100
29,"N#Cc1cn2c(NCc3c(F)ccc4c3CCO4)ncc(-c3cccnn3)c2n1 [Example 142, 5-(((5-fluoro-2,3-dihydrobenzofuran-4-yl)methyl)amino)-8-(pyridazin-3-yl)imidazo[1,2-c]pyrimidine-2-carbonitrile]",< 100
30,"CN(C)Cc1ccc(-c2cnc(NCc3c(F)ccc4c3CCO4)n3cc(C#N)nc23)cc1C#N [Example 201, 8-(3-cyano-4-((dimethylamino)methyl)phenyl)-5-(((5-fluoro-2,3-dihydrobenzofuran-4-yl)methyl)amino)imidazo[1,2-c]pyrimidine-2-carbonitrile]",< 100
